One assay concerns Beagle dogs. Briefly: Hypnotic activity in Beagle dogs (polygraphic measurement of the conscious and sleeping states). In kind it is in vivo, dog. The following applies: for Mean duration of the state of consciousness: Consciousness / Mean duration of the state of consciousness: Drowsiness / Mean duration: P.S. (paradoxal sleep) / Mean duration: Slow-wave sleep S1 + S2 / Mean duration: Total sleep / Mean latency time: Drowsiness / Mean latency time: P.S. (paradoxal sleep) / Mean latency time: Slow-wave sleep S1: 7 Beagle dogs, IV single bolus; for Mean duration of the state of consciousness: Consciousness / Mean duration of the state of consciousness: Drowsiness / Mean duration: P.S. (paradoxal sleep) / Mean duration: Slow-wave sleep S1 + S2 / Mean duration: Total sleep: 150 min recording; for Hypnotic power (in words): Beagle dogs, IV, sleep with high proportion of slow waves, consciousness reduced, latencies reduced. On the procedure: During each test, the dogs are taken to a recording room in which they are connected to a Schwarzer ED 24 polygraph driven by Brainlab® for Windows® by means of a flexible cable. The dog is then placed in a 0.70×1×0.8 m metal cage in which it stays for 150 minutes.
The test products and the placebo were administered intravenously as a single bolus into the anterior median vein. The recordings are noted in periods of 30 seconds following the five states of vigilance defined by Shelton et al.:
deep slow-wave sleep, and
by examining the amplitude and frequency of the 2 frontal EEG plots (frontal), the EOG plots (bilateral) and the EMG plots (neck muscles) as follows:
Conscious: The dogs may be standing, sitting or lying down, or moving between these positions. Their eyes are open. This state includes all the episodes of multiple voltage and frequency with muscular activity.
Drowsy: The dogs are lying down with the eyes closed for most of the time. The EEG plots show slow-wave cycles (5-7 Hz) without the appearance of spindles. Large-amplitude synchronous slow waves (4-7 Hz) appear on a background of rapid activity. The EMG tends to be reduced compared with the conscious state.
Light sleep (SL1 or S1): The dogs are lying down in the stretched ventral position or, usually, in an incomplete circle. The relaxation is total. The EEG plots are characterized by K complexes and/or spindles. The amplitude increases.
Deep sleep (SL2 or S2): The dogs are lying down, with relaxed muscles. They remain without reaction to moderate stimulations (by sound). The slow delta waves (<4 Hz) with an amplitude of at least 70 μV constitute at least 20% of a period of 30 seconds.
Paradoxal sleep (PS): The dogs are lying down with the eyes closed and occasionally display rapid contractions of the eyelids and/or myoclonia, in particular of the labial extensor muscles. The EEG plots are of low voltage and varied frequencies. The EOG plots show rapid contractions. The EMG plot is of low amplitude, with the exception of the short-lived clonus. A period is classified as paradoxal sleep only if the preceding period is a period of sleep. The end of a period of paradoxal sleep is determined by the appearance of K complexes or spindles, or by the appearance of EMG activity.
The test compounds are administered intravenously by means of a vehicle having the composition: 50/50 (V/V) PEG-400/water for injectable preparations, as a single bolus of 10 ml per 12 kg of live weight.
The placebo consists of the intravenous administration of the vehicle alone, having the composition: 50/50 (V/V) PEG-400/water for injectable preparations, as a single bolus of 10 ml per 12 kg of live weight.
The distribution of the observation time spent in each of the stages of consciousness and sleep, as well as the latency times for onset of the first stages of each type of sleep, are given in Table I.

In assay [1] the test system is chicks of chair label JA657 strain. Nature of the assay: Hypnotic and sedative activities in chicks (alternate lighting, test between 2.00 pm and 3.00 pm). The following applies: for ST (sleeping time) / Sedation time (after waking up, Stage 2) / FAT (falling-asleep time): IM; for FAT (falling-asleep time): to the nearest minute.
Where [2] appears, read: 2 μmol/100 g, batch means of 3 chicks, limit values if >2 batches.
[3] abbreviates: 1 μmol/100 g, batch means of 3 chicks, limit values if >2 batches.
[4] abbreviates: 0.5 μmol/100 g, batch means of 3 chicks, limit values if >2 batches.

The source of these data is patent publication US6335346B1 (MACEF, priority 1999, dated 2002).

As to `COc1ccc2[nH]c3c(c(=O)c2c1)CN1C(=O)CCC(c2ccccc2)=C31` [Example 5], in the assay with Beagle dogs (1 μmol/kg), the “Mean duration of the state of consciousness: Consciousness” value amounted to 108.1 min, the “Mean duration of the state of consciousness: Drowsiness” value was determined as 15.8 min, the “Mean duration: P.S. (paradoxal sleep)” value was found to be 2.6 min and the “Mean duration: Slow-wave sleep S1 + S2” value was 23.4 min. Moreover, in the assay on Beagle dogs (1 μmol/kg), the “Mean duration: Total sleep” value amounted to 41.9 min, the “Mean latency time: Drowsiness” value was determined as 51.7 min, the “Mean latency time: P.S. (paradoxal sleep)” value stood at 110.7 min and the “Mean latency time: Slow-wave sleep S1” value was found to be 69.0 min. Moreover, the “Hypnotic power (in words)” value in the assay on Beagle dogs is “marked hypnotic power”. In addition, in assay [1] (0.87 μmol/100 g (3.12 mg/kg)), the “ST (sleeping time)” value is reported as 36; the “Sedation time (after waking up, Stage 2)” value is given as 44; the “FAT (falling-asleep time)” value is 10.

`COc1ccc2c3c([nH]c2c1)C(C)=NCC3` [HARMALIN, harmaline]: in assay [1] (1.4 μmol/100 g (3 mg/kg)), the “ST (sleeping time)” value was 0 and the “Sedation time (after waking up, Stage 2)” value is reported as 0.

In the case of `C=C1c2[nH]c3ccc(OC)cc3c(=O)c2CN1C(C)=O` [Example 1, 2-Acetyl-7-methoxy-3-methylene-9-oxo-1,3,4,9-tetrahydropyrrolo[3,4-b]quinoline], in assay [1] (setting [2]), the “ST (sleeping time)” value came to 30; the “Sedation time (after waking up, Stage 2)” value was determined as 35; the “FAT (falling-asleep time)” value is 10.5.

For the compound `COc1ccc2[nH]c3c(c2c1)CCN=C3C` [10-METHOXYHARMALAN, 10-methoxy harmalan], in assay [1] (1.4 μmol/100 g (3 mg/kg)), the “ST (sleeping time)” value was determined as 0 and the “Sedation time (after waking up, Stage 2)” value worked out at 0.

As to `CCC1CCC(=O)N2Cc3c([nH]c4ccc(OC)cc4c3=O)C12` (stereo not drawn) [Example 9], in assay [1] (setting [3]), the “ST (sleeping time)” value is recorded as 36; the “Sedation time (after waking up, Stage 2)” value worked out at 44; the “FAT (falling-asleep time)” value is recorded as 7.

For the compound `CN1C(=O)CN=C(c2ccccc2)c2cc(Cl)ccc21` [DIAZEPAM, diazepam], in assay [1] (setting [4]), the “ST (sleeping time)” value is recorded as 10-50 and the “FAT (falling-asleep time)” value is 3-6. In assay [1] (setting [3]), the “ST (sleeping time)” value is 24-70; the “Sedation time (after waking up, Stage 2)” value is reported as 17-20; the “FAT (falling-asleep time)” value is 2-7. Besides, in assay [1] (setting [2]), the “ST (sleeping time)” value is listed as 81-100; the “Sedation time (after waking up, Stage 2)” value is given as 14-15; the “FAT (falling-asleep time)” value is recorded as 2-5.

As for `COc1ccc2[nH]c3c(c(=O)c2c1)CN(C(C)=O)C3C` (stereo not drawn) [Example 6, 2-Acetyl-7-methoxy-3-methyl-9-oxo-1,3,4,9-tetrahydropyrrolo[3,4-b]quinoline], in assay [1] (setting [2]), the “ST (sleeping time)” value is reported as 33; the “Sedation time (after waking up, Stage 2)” value turned out to be 27; the “FAT (falling-asleep time)” value amounted to 15.

`CCC1=C2c3[nH]c4ccc(OC)cc4c(=O)c3CN2C(=O)CC1` [Example 4]: in the assay on Beagle dogs (1.5 μmol/kg), the “Mean duration of the state of consciousness: Consciousness” value was 115.4 min, the “Mean duration of the state of consciousness: Drowsiness” value is 15.9 min, the “Mean duration: P.S. (paradoxal sleep)” value came out at 2.4 min and the “Mean duration: Slow-wave sleep S1 + S2” value worked out at 16.3 min. Besides, in the assay on Beagle dogs (1.5 μmol/kg), the “Mean duration: Total sleep” value came to 34.6 min, the “Mean latency time: Drowsiness” value amounted to 63.8 min, the “Mean latency time: P.S. (paradoxal sleep)” value worked out at 114.8 min and the “Mean latency time: Slow-wave sleep S1” value worked out at 84.8 min. The “Hypnotic power (in words)” value in the assay on Beagle dogs was “marked hypnotic power”. In assay [1] (setting [3]), the “ST (sleeping time)” value turned out to be 30; the “Sedation time (after waking up, Stage 2)” value is listed as 47; the “FAT (falling-asleep time)” value was 13.

For `CCCC(C)C1(CC)C(=O)NC(=O)NC1=O` (stereo not drawn) [PENTOBARBITAL, pentobarbital sodium], the “ST (sleeping time)” value in assay [1] (setting [4]) was found to be 0. In addition, in assay [1] (setting [3]), the “ST (sleeping time)” value was found to be 36 and the “FAT (falling-asleep time)” value is listed as 13.

Consider `COc1ccc2[nH]cc(CCNC(C)=O)c2c1` [MELATONIN, melatonin], for which the “ST (sleeping time)” value in assay [1] (setting [4]), in assay [1] (setting [3]) and in assay [1] (setting [2]) was 0 throughout. Besides, the entries for the “Sedation time (after waking up, Stage 2)” value in assay [1] (setting [3]) and in assay [1] (setting [2]) were 16-36 and 47-105, respectively. In assay [1] (administration during the daylight phase between 2.00 pm and 3.00 pm), the “Hypnotic activity (in words)” value was “no hypnotic activity”.
